According to patent US3956291A, “7-Thioacetamido cephalosporanic acid derivatives” (American Home Products Corporation, priority 1974, dated 1976):
In brackets after ≈: the same amount, converted by molar mass. Read-outs that look alike come from different tables or passages of the source.

Key:
Assay in all cases: agar serial dilution test, minimum inhibitory concentration
Type in all cases: cell-based
proteus vulgaris = tested on: proteus vulgaris
Text: (§1) The compounds of this invention are useful for the treatment of bacterial infections amenable to treatment by cephalosporins. […] In accordance with the results obtained with the antibacterial compounds of this invention, their usefulness is established in the fields of comparative pharmacology and microbiology for the purpose of inhibiting the growth of undesirable bacterial colonies. […]

bordetella brochiseptica = settings: BO BR strain 4617
Text: as §1

neisseria catarrhalis = tested on: neisseria catarrhalis
Text: as §1

bacillus subtilis = settings: Bacillus subtilis; BA SU strain 6633
Text: as §1

salmonella paratyphi = settings: Salmonella enterica, read-out: Minimum Inhibitory Concentration
Text: as §1

klebsiella pneumoniae = tested on: klebsiella pneumoniae
Text: as §1

escherichia coli = tested on: escherichia coli
Text: as §1

Staphylococcus aureus = settings: Staphylococcus aureus
Text: as §1

herellea species = settings: HE SP strain 9955
Text: The compounds of this invention are useful for the treatment of bacterial infections amenable to treatment by cephalosporins. […] In accordance with the results obtained with the antibacterial compounds of this invention, their usefulness is established in the fields of comparative pharmacology and microbiology for the purpose of inhibiting the growth of undesirable bacterial colonies.
The nmr spectra described in the following examples pertains to the spectra obtained upon exchanging acidic hydrogens with deuterium and are described in ppm (δ). The small amount of water and/or solvent carried into the products is readily removed by gently heating the material under vacuum. […]

[1] = read-out: Minimum Inhibitory Concentration
[2] = KL PN strain 10031, read-out: Minimum Inhibitory Concentration
[3] = PR VU strain 6896, read-out: Minimum Inhibitory Concentration
[4] = NE CA strain 8193, read-out: Minimum Inhibitory Concentration

| SMILES | MIC (proteus vulgaris; [1]) [µg/mL] | MIC (bordetella brochiseptica) [µg/mL] | MIC (neisseria catarrhalis; [1]) [µg/mL] | MIC (bacillus subtilis) [µg/mL] | MIC (salmonella paratyphi) [µg/mL] | MIC (klebsiella pneumoniae; [2]) [µg/mL] | MIC (escherichia coli; ES CO strain 9637) [µg/mL] | MIC (Staphylococcus aureus; ST AU strain 53-180) [µg/mL] | MIC (Staphylococcus aureus; ST AU strain 6538P) [µg/mL] | MIC (Staphylococcus aureus; ST AU strain CHP) [µg/mL] | MIC (Staphylococcus aureus; ST AU strain Smith) [µg/mL] | MIC (proteus vulgaris; [3]) [µg/mL] | MIC (klebsiella pneumoniae; [1]) [µg/mL] | MIC (escherichia coli; ES CO strain 920) [µg/mL] | MIC (herellea species) [µg/mL] | MIC (neisseria catarrhalis; [4]) [µg/mL] | MIC (Staphylococcus aureus; ST AU (ditto mark) strain 9637 (so in the source)) [µg/mL] |
| --- | --- | --- | --- | --- | --- | --- | --- | --- | --- | --- | --- | --- | --- | --- | --- | --- | --- |
| CCOC(=O)CSC(SCC(=O)N[C@@H]1C(=O)N2C(C(=O)O)=C(COC(C)=O)CS[C@H]12)=C(C#N)C#N [Example 1, 7-(2[2,2-Dicyano-1-(ethoxycarbonylmethylthio)ethenylthio]acetamido)cephalosporanic acid] | 125 (≈ 231 µM) | 250 (≈ 462 µM) | 125 (≈ 231 µM) | 0.244 (≈ 0.451 µM) | 125 (≈ 231 µM) | 250 (≈ 462 µM) | 250 (≈ 462 µM) | 3.9 (≈ 7.21 µM) | 0.976 (≈ 1.81 µM) | 7.81 (≈ 14.4 µM) | 0.976 (≈ 1.81 µM) |  |  |  |  |  |  |
| CC(=O)OCC1=C(C(=O)O)N2C(=O)[C@@H](NC(=O)CSC(SCC#N)=C(C#N)C#N)[C@H]2SC1 [Example 2, 7-(2-[2,2-Dicyano-1-(cyanomethylthio)ethenylthio]acetamido)cephalosporanic acid] |  | 62.5 (≈ 127 µM) | 15.6 (≈ 31.6 µM) | 0.061 (≈ 0.124 µM) | 15.6 (≈ 31.6 µM) |  | 31.3 (≈ 63.4 µM) | 1.95 (≈ 3.95 µM) | 0.488 (≈ 0.989 µM) | 1.95 (≈ 3.95 µM) | 0.488 (≈ 0.989 µM) | 31.3 (≈ 63.4 µM) | 15.6 (≈ 31.6 µM) | 250 (≈ 507 µM) | 250 (≈ 507 µM) |  |  |
| COC(=O)CSC(SCC(=O)N[C@@H]1C(=O)N2C(C(=O)O)=C(COC(C)=O)CS[C@H]12)=C(C#N)C(N)=O [Example 3, 7-(2-[2-Carbamoyl-1-(methoxycarbonylmethylthio)-2-cyanoethenylthio]acetamido) cephalosporanic acid] |  |  |  | 0.122 (≈ 0.224 µM) | 31.3 (≈ 57.5 µM) | 125 (≈ 230 µM) | 62.5 (≈ 115 µM) | 1.95 (≈ 3.58 µM) | 0.488 (≈ 0.896 µM) | 3.9 (≈ 7.16 µM) | 0.488 (≈ 0.896 µM) | 62.5 (≈ 115 µM) |  |  |  | 7.81 (≈ 14.3 µM) |  |
| CCOC(=O)CSC(SCC(=O)N[C@@H]1C(=O)N2C(C(=O)O)=C(COC(C)=O)CS[C@H]12)=C(C#N)C(N)=O [Example 4] |  |  |  | 0.061 (≈ 0.109 µM) | 62.5 (≈ 112 µM) | 125 (≈ 224 µM) | 250 (≈ 448 µM) | 1.95 (≈ 3.49 µM) | 0.488 (≈ 0.874 µM) | 3.9 (≈ 6.98 µM) | 0.488 (≈ 0.874 µM) | 125 (≈ 224 µM) |  |  |  | 3.9 (≈ 6.98 µM) |  |
| CSC(=NC#N)SCC(=O)N[C@@H]1C(=O)N2C(C(=O)O)=C(COC(C)=O)CS[C@H]12 [Example 5] |  | 125 (≈ 281 µM) |  | 0.976 (≈ 2.2 µM) | 31.3 (≈ 70.4 µM) | 125 (≈ 281 µM) |  | 3.9 (≈ 8.77 µM) | 1.95 (≈ 4.39 µM) | 7.81 (≈ 17.6 µM) | 0.976 (≈ 2.2 µM) | 62.5 (≈ 141 µM) |  | 250 (≈ 562 µM) |  | 250 (≈ 562 µM) | 125 (≈ 281 µM) |
| CC(=O)OCC1=C(C(=O)O)N2C(=O)[C@@H](NC(=O)CSC(SCC#N)=C(C#N)c3ccccc3)[C@H]2SC1 [Example 8, 7-(2-[2-Cyano-1-(cyanomethylthio)-2-phenylethenylthio]acetamido)cephalosporanic acid] |  | 250 (≈ 459 µM) |  | 0.031 (≈ 0.0569 µM) | 62.5 (≈ 115 µM) |  | 25 (≈ 45.9 µM) | 0.976 (≈ 1.79 µM) | 0.244 (≈ 0.448 µM) | 0.976 (≈ 1.79 µM) | 0.244 (≈ 0.448 µM) | 250 (≈ 459 µM) | 62.5 (≈ 115 µM) | 250 (≈ 459 µM) |  | 3.9 (≈ 7.16 µM) |  |
| CC(=O)OCC1=C(C(=O)O)N2C(=O)[C@@H](NC(=O)CSC(=C[N+](=O)[O-])SCc3ccccc3)[C@H]2SC1 [Example 9, 7-[2-(1-Benzylthio-2-nitroethenylthio)acetamido]cephalosporanic acid] |  | 250 (≈ 463 µM) |  | 0.031 (≈ 0.0574 µM) | 62.5 (≈ 116 µM) | 125 (≈ 232 µM) | 250 (≈ 463 µM) | 0.488 (≈ 0.904 µM) | 0.122 (≈ 0.226 µM) | 0.488 (≈ 0.904 µM) | 0.122 (≈ 0.226 µM) | 125 (≈ 232 µM) |  |  |  | 7.81 (≈ 14.5 µM) |  |
| CC(=O)OCC1=C(C(=O)O)N2C(=O)[C@@H](NC(=O)CSC(=NC#N)SCc3ccccc3)[C@H]2SC1 [Example 10, 7-[2-[ (cyanoimino) (phenylmethylthio)methylthio]acetamido]cephalosporanic acid] |  | 15.6 (≈ 30 µM) |  | 0.122 (≈ 0.234 µM) | 3.9 (≈ 7.49 µM) | 15.6 (≈ 30 µM) | 15.6 (≈ 30 µM) | 1.95 (≈ 3.75 µM) | 0.976 (≈ 1.87 µM) | 3.9 (≈ 7.49 µM) | 0.976 (≈ 1.87 µM) | 15.6 (≈ 30 µM) |  | 62.5 (≈ 120 µM) |  | 62.5 (≈ 120 µM) |  |
